The target of one assay is CSNK1D (Homo sapiens, UniProt P48730). In words: KinomeScan. The format is binding. Conditions: read-out: % Control.
The target of a further assay is T1, EPHB1 (Homo sapiens, UniProt P54762).
T1 construct: purchased DiscoveRx (Fremont, CA)
Nature of the assay: KinomeScan. It is filed as binding. Conditions: read-out: % Control.

The next assay deals with T2, MAP3K4 (Homo sapiens, UniProt Q9Y6R4).
T2 construct: purchased DiscoveRx (Fremont, CA)
Nature of the assay: KinomeScan. Conditions: read-out: % Control. The format is binding.

The target in a further assay is T3, PIK3CA(C420R) (Homo sapiens, UniProt P42336, C420R).
T3 construct: purchased DiscoveRx (Fremont, CA)
In words: KinomeScan. It is filed as binding. Conditions: read-out: % Control.

For the next assay, the target named is T4, PKN2 (Homo sapiens, UniProt Q16513).
T4 construct: purchased DiscoveRx (Fremont, CA)
In words: KinomeScan. It is filed as binding. The conditions noted are these: read-out: % Control.

The target of the next assay is T5, RET(V804M) (Homo sapiens, UniProt P07949, V804M).
T5 construct: purchased DiscoveRx (Fremont, CA)
Nature of the assay: KinomeScan. The format is binding. Conditions: read-out: % Control.

The next assay addresses T6, STK35 (Homo sapiens, UniProt Q8TDR2).
T6 construct: purchased DiscoveRx (Fremont, CA)
In words: KinomeScan. It is filed as binding. Conditions: read-out: % Control.

For another assay, the target named is T7, TNNI3K (Homo sapiens, UniProt Q59H18).
T7 construct: purchased DiscoveRx (Fremont, CA)
In words: KinomeScan. The format is binding. Conditions: read-out: % Control.

In the next assay the target is T8, P2Y4 (Homo sapiens, UniProt P51582).
T8 construct: host or cells: Chem-1 cells with Gα15
Nature of the assay: GPCR Profiler. It is filed as cell-based.

For another assay, the system named is Hep G2. Nature of the assay: Cell Titer-Glo viability, Hepatocellular cancer. It is filed as cell-based. The procedure: OGM2 kills wide variety of cancer cell types. Cell sensitivity can be classified in to Very Sensitive (LC50<2 μM), Sensitive (LC50=2 to 10 μM), Mildly Sensitive (LC50>10 μM), and Refractory (no killing at 10 μM). The listed established cell were incubated with OGM2 at 2 μM or 10 μM for 72 hours under standard cell culture conditions, and relative cell number was assessed using Cell Titer-Glo Luminescent Cell Viability Assay (Promega™) following the manufacturer's instructions. Luminescence was determined using a Cytation 5 reader and Gen5 software package (BioTek™).
Cancer cells, which are very sensitive to killing by OGM2 (LCs <2 μM), with reported mRNA expression of GPR68 and the related proton sensing receptor GPR4. LC50's (concentrations causing 50% lethality) were determined using CellTiter-Glo (Promega™, G7570). Cells were plated in 12-well plates (CELLTREAT Scientific Products, 229112) in 1 ml of DMEM with high glucose, GlutaMAX, HEPES, or RPMI 1640 with Penicillin-Streptomycin (ThermoFisher™, 10564029, 11875119 and 15140122) and 10% FBS. Cells were incubated overnight at 37° C. in 5% CO2. Then 1 mL of fresh media was added with DMSO, OGM, or positive control (Erastin; APExBIO Technology, LLC, B1524) and cells incubated for 3 days. On the third day, all media was removed, cells were rinsed with 1×PBS, PBS was removed, and 200 μL of 1× Passive Lysis Buffer (Promega™, E1941) was added to each well. […]. Subsequently, 20 μL of lysate was added to 100 μL CellTiter-Glo™ reagent on a LUMITRAC 200 plate (Greiner™ bio-one, 82050-726). Plates were briefly spun down and read on a GloMax-Multi Detection System (Promega™).
The cells listed in the tables above were incubated with OGM2 at 2 μM or 10 μM for 72 hours under standard cell culture conditions, and relative cell number was assessed using Cell Titer-Glo Luminescent Cell Viability Assay (Promega™) following the manufacturer's instructions. Luminescence was determined using a Cytation 5 reader and Gen5 software package (BioTek™). RNA expression of GPR68 and GPR4 in the corresponding cancer cell lines are listed, according to the publicly available The Human Protein Atlas version 22.0 and Ensembl version 103.38 (see proteinatlas.org). The consensus normalized expression value (“nTPM”=normalize transcript per million) was calculated as the maximum nTPM value for each gene in the two data sources.
(Cellular ATP, detected with luciferase, serves as a proxy for viable cell number.)

Another assay deals with U138. Nature of the assay: Liperfluo lipid peroxidation. It is filed as cell-based, human. The procedure:
(§1) Cells were plated on a 100 mm cell culture dish (CELLTREAT Scientific Products) in 10 mls of DMEM with high glucose, GlutaMAX, HEPES, Penicillin-Streptomycin (ThermoFisher™) and 10% FBS. Cells were incubated overnight at 37° C. in 5% CO2. Media were then replaced with […] fresh media with DMSO, OGM2, or Erastin (APExBIO Technology™) and the cells incubated for 3 days. On the third day, 3 mL fresh media with 2.5 μM Liperfluo™ (Dojindo Molecular Technologies™, Inc.) resuspended in DMSO was added and cells were incubated at 37° C. in 5% CO2 for 1 hour. Cells were subsequently trypsinized for 5 minutes, pelleted by centrifugation, and resuspended in cell sorting media (1% BSA and 1 mM EDTA in PBS pH 7.4). Ten thousand events were recorded on a BD LSR II and the data processed using the FlowJo™ software.
(§2) Where appropriate, ANOVA, or student's T-test were conducted in PRISM. Chi squared T(X) was used for Liperfluo analysis. A value T(X)>4 implies that the two distributions are different with a p<0.01 (99% confidence). For drug interaction and therapeutic interaction, the coefficient of drug interaction (CDI) was calculated as follows: CDI=AB/(A×B). According to the impact of each group, AB is the value of combined treatment and A or B is the value of the single agent group to control group.

The next assay concerns U87. In words: Liperfluo lipid peroxidation. The format is cell-based, human. The conditions noted are these: OGM2 and 2Gy ionizing radiation. The procedure:
as §1, §2

For the next assay, the system named is A549. Nature of the assay: Liperfluo lipid peroxidation. The format is cell-based, human. The conditions noted are these: OGM2 and ionizing radiation. The protocol:
as §2
Radiation, like OGM2, induces lipid peroxidation in addition to DNA damage. OGM was tested for its ability to sensitize lung and pancreatic cancers to radiation induced lipid peroxidation and ferroptosis. Cells were incubated at 37° C. in 5% CO2 in […] DMEM with DMSO, OGM2, or Erastin for 3 days. Then 2.5 μM Liperfluo in 3 ml fresh media was added and cells were incubated at 37° C. in 5% CO2 for 1 hour. Cells were then trypsinized, pelleted, and resuspended in cell sorting media (1% BSA and 1 mM EDTA in PBS pH 7.4). A BD LSR II was used to record Ten thousand events and the data processed with FlowJo v10.8. […] All treatments were highly significant with Chi-squared >4 indicating a p<0.01.

T8 sequence (P51582 whole entry, species assumed): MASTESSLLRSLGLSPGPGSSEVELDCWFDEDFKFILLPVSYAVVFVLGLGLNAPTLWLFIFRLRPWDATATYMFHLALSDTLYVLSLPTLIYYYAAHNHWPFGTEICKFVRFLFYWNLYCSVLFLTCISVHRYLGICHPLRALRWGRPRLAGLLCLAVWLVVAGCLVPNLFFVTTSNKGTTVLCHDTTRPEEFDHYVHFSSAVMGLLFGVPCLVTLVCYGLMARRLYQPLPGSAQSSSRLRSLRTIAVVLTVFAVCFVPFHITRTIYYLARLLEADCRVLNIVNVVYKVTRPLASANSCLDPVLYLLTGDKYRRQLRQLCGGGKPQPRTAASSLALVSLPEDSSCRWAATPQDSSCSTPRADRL
T1 sequence (P54762 18-984): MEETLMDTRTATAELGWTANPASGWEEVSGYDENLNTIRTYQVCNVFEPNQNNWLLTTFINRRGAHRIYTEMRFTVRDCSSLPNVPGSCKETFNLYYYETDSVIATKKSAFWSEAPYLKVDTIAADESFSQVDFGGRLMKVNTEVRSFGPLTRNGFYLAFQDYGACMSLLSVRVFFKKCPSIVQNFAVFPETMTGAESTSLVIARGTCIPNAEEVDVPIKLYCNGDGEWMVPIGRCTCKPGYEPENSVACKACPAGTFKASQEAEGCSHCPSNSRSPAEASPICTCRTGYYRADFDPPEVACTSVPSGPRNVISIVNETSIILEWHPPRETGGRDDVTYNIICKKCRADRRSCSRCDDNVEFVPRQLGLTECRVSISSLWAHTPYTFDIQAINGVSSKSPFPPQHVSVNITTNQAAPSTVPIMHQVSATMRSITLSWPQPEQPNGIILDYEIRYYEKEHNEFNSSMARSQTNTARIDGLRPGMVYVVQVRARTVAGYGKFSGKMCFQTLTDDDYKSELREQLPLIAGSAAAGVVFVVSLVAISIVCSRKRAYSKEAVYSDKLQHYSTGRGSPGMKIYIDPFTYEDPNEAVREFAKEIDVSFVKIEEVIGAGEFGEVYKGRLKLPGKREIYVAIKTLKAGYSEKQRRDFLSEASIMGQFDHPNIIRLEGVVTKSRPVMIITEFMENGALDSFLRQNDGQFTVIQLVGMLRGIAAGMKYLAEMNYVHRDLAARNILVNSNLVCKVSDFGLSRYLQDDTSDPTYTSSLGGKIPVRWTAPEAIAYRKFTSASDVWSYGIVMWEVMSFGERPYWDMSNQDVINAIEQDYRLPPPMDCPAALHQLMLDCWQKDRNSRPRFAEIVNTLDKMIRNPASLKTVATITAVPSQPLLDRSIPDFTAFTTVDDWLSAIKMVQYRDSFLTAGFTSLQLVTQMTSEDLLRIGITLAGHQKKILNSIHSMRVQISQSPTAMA
T7 sequence (Q59H18 whole entry): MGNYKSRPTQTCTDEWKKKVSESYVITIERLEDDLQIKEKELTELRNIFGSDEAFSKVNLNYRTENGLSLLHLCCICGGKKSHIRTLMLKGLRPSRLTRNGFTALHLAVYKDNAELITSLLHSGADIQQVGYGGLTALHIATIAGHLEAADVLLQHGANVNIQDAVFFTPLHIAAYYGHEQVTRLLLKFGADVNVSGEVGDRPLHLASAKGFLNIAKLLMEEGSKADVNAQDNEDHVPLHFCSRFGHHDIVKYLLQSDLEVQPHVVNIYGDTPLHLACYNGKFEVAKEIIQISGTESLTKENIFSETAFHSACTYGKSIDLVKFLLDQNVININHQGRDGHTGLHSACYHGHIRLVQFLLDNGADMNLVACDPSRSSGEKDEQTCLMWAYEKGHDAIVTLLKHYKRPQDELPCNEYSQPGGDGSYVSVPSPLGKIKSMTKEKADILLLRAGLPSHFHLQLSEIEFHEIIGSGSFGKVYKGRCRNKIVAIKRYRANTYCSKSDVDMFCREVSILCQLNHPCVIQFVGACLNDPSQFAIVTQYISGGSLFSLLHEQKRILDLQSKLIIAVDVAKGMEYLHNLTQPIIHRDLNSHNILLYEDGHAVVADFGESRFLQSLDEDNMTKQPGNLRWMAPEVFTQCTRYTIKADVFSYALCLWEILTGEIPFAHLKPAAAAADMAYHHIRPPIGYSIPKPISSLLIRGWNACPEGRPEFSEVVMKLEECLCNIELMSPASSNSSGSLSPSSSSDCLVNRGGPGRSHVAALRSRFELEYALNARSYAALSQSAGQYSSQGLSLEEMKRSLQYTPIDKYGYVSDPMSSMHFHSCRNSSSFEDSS
T3 sequence (P42336 whole entry C420R): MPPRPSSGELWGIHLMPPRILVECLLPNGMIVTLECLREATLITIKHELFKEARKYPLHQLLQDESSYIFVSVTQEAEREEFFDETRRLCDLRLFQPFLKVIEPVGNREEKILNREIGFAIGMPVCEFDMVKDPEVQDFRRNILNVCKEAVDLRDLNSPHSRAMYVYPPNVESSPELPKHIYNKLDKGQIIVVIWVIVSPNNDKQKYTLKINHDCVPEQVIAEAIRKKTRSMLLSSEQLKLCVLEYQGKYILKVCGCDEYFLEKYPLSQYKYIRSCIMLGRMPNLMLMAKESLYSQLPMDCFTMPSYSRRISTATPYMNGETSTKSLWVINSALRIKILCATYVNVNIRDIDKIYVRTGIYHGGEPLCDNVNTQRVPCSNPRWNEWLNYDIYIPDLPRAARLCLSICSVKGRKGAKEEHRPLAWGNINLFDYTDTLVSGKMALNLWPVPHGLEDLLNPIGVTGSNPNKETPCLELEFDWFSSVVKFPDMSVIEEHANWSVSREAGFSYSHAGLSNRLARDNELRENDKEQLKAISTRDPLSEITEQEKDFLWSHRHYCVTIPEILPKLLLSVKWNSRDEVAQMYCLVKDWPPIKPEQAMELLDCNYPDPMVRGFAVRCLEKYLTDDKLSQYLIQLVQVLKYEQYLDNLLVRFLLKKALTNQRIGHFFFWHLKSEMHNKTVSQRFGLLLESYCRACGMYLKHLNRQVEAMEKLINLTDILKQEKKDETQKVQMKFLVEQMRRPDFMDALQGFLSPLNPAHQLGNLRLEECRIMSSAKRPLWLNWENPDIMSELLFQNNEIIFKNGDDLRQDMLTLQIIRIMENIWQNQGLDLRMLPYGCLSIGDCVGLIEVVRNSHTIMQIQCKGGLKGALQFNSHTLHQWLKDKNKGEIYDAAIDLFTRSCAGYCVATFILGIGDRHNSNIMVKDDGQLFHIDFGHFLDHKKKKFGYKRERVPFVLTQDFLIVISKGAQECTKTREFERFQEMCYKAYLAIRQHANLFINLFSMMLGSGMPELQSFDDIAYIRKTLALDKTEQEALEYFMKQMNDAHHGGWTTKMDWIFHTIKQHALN
T6 sequence (Q8TDR2 whole entry): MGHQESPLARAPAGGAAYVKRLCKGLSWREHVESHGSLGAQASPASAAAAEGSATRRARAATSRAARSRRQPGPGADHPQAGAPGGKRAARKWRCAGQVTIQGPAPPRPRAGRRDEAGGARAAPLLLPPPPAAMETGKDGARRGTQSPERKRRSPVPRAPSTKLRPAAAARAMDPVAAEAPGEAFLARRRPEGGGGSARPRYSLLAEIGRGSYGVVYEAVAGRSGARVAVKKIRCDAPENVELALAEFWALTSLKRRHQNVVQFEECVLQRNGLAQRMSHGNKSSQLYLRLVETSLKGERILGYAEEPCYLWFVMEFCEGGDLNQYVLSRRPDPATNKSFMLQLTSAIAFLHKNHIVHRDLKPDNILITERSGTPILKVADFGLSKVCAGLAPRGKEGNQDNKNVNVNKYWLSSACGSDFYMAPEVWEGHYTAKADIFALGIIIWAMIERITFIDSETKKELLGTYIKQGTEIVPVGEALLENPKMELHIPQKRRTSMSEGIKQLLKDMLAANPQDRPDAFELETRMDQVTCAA
T5 sequence (P07949 29-1114 V804M): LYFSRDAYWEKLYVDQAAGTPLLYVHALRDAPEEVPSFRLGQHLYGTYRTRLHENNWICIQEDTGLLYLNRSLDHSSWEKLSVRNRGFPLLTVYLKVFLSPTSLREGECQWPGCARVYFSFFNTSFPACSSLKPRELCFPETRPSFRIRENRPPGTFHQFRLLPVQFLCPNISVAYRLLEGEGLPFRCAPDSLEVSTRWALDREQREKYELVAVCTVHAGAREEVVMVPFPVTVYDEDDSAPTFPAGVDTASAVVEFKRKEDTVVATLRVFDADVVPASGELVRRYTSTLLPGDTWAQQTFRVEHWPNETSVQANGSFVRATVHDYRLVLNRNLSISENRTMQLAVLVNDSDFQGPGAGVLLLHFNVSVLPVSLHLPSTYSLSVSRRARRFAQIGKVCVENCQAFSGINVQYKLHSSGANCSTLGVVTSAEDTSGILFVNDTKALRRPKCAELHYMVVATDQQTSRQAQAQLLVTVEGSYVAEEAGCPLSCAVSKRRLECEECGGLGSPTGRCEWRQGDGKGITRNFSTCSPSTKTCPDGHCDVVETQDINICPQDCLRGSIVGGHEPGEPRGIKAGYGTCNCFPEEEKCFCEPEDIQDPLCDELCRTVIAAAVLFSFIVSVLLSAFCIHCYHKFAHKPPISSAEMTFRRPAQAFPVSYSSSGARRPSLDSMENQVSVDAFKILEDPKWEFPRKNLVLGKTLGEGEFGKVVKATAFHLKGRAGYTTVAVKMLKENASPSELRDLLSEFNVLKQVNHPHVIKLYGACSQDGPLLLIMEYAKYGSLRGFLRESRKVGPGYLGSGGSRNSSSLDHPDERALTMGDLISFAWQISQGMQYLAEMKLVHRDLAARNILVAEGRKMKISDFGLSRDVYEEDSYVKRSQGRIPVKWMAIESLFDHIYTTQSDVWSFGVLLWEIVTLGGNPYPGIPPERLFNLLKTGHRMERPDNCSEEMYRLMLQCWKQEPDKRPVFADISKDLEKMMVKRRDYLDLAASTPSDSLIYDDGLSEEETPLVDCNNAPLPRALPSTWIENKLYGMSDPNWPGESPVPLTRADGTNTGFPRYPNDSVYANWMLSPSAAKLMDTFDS

Regarding `CCc1ccc2c(c1)C1(NN=C(c3cccc4ccccc34)S1)C(=O)N2` (stereo not shown) [OGM1, 5-ethyl-5′-naphthalen-1-ylspiro[1H-indole-3,2′-3H-1,3,4-thiadiazole]-2-one], the remaining binding at 10 µM on CSNK1D, on EPHB1, at MAP3K4, at PIK3CA(C420R), on PKN2 and at RET(V804M) was 100% throughout. The remaining binding at 10 µM at STK35 and at TNNI3K was 100% in each case. On P2Y4 (10 uM), this compound had an Antagonism of 5.4. At P2Y4 (12.5 uM), this compound came in with an Agonism of −0.8.

For `CCc1ccc2c(c1)C1(NN=C(c3ccccc3)S1)C(=O)N2` (stereo not shown) [OGM2], the Class result with Hep G2 is on record as “Sensitive (Sensitive (LC50=2 to 10 μM))”. Moreover, the “% Survival 2 μM OGM” value with Hep G2 (72 hours) was 66.8%. Moreover, the “% Survival 10 μM OGM” value in the assay with Hep G2 (72 hours) is recorded as 45.7%. Moreover, the CC50 in the assay on Hep G2 (Homo sapiens, HepG2, 72 hours, read-out: LC50 (the source's name)) lay within 2 to 10 µM. In addition, the “Chi-squared T(X), lipid peroxidation” value is 273 in the assay with U138 (2 μM) and 592 in the assay on U138 (10 μM). Further, the “CDI, lipid peroxidation” value in the assay on U138 (OGM2 and 2Gy ionizing radiation) is under 0.006; in the assay with U87, under 0.06; in the assay with A549, under 0.232.

Values taken from US20240327364A1, “THERAPEUTIC TARGETING OF GPR68 TO INDUCE FERROPTOSIS” (University Of Maryland, Baltimore, priority 2023, published 2024).
